Legend:
FGFR1 = FGFR1 (Homo sapiens, UniProt P11362); test: Kinase assay (LANCE Ultra TR-FRET), FGFR1; assay type: biochemical
Description: (§1) Kinase assays were conducted in 384-well plates using LANCE ultra 66 time-resolved fluorescence resonance energy transfer (TR-FRET) methods, according to the manufacturer’s instructions (Perkin-Elmer). In brief, each kinase was pre-incubated with a serially diluted compound for 30 min, incubated with ULight poly-GT peptide substrate and ATP for up to 1 h. Thirty minutes after adding Eu-labeled anti-phosphopeptides Ab diluted in LANCE Detection Buffer, LANCE signals were measured with an EnVision multilabel reader (Perkin-Elmer).

Pyk2 = Pyk2 (Homo sapiens, UniProt Q14289); test: Kinase assay (LANCE Ultra TR-FRET), Pyk2; assay type: biochemical
Sequence of Pyk2 (Q14289 whole entry, species assumed): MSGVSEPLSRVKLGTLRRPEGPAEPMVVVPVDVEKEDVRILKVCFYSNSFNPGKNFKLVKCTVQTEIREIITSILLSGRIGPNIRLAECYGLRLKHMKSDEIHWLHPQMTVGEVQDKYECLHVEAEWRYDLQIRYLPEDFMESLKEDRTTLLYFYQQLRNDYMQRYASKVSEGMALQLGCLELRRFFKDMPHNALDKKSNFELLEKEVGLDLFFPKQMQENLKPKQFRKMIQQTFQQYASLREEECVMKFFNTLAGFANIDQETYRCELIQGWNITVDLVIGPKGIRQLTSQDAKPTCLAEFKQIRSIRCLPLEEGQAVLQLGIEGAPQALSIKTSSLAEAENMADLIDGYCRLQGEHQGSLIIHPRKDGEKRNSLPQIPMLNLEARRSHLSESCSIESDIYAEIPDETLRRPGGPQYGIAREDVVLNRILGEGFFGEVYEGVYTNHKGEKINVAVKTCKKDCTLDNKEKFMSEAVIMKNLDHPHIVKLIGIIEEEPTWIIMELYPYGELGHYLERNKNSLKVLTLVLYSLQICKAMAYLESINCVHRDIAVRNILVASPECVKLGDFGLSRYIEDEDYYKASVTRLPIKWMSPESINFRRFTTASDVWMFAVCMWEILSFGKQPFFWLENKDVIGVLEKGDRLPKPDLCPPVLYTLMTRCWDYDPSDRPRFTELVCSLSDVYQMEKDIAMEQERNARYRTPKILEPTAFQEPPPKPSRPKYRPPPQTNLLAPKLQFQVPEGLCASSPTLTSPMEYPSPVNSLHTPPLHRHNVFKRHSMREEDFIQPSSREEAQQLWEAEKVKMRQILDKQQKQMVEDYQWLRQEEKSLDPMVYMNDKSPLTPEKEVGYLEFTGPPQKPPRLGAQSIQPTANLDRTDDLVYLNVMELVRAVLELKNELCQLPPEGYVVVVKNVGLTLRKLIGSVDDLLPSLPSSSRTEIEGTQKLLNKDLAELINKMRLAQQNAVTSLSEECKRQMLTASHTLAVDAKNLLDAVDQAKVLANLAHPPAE
Description: as §1

mouse primary B cells = test: CP670-dilution proliferation assay, BCR crosslinking (anti-IgM) stimulated B cells; assay type: cell-based; conditions: 0.1–5 μM, CP670 dilution, 72 h
Description: Splenic CD19^+ B cells from C57BL/6 mice were sorted by MACS (Milteny Biotec), stained with 3 μM cell proliferation dye eFluor 670 (CP670; eBioscience), and cultured for 72 h in the presence of either 10 μg/ml LPS (Sigma Aldrich) or 5 μg/ml anti-mouse IgM (Jackson Immuno Research Laboratories), 10 μg/ml anti-CD40 mAb (Biolegend) and 10 ng/ml IL-4 (Peprotech), and assayed by FACS. To detect apoptotic cells, unstimulated cells were cultured for 24 h, stained with Annexin V and 7-aminoactinomycin D (7-AAD), and assayed by FACS.
Figure 2: in vitro effects of SKI-O -703 on the proliferation, survival, and differentiation of B cells. Mouse primary B cells were labeled with CP670, and stimulated with either anti-IgM mAb, CD40L and IL-4 (A) or LPS (B) for 72 h in the presence or absence of SKI-O-703 and tofacitinib at the indicated concentrations; they were then assayed by FACS. (C and D) Mouse primary B cells were cultured as in A and B for 24 h, stained with Annexin V and 7-AAD, and assayed by FACS. Representative FACS profiles and graphs displaying mean Annexin V-positivity are shown. (E) Human primary B cells were stimulated with CpG ODN plus IL-2 (to detect IgM and IgG) or CpG ODN 2006 plus IFN-α (to detect IL-6) in the presence or absence of inhibitors. The culture supernatants were assayed by ELISA. Graphs are expressed as % positivity relative to the controls (without inhibitor). […]

BALB/c mice = test: K/BxN serum-transferred arthritis (KSTA) in BALB/c mice; assay type: in vivo, mouse
Description: Arthritogenic serum was collected from 8-to-15-week-old K/BxN mice. Eight-week-old male BALB/c mice were injected intraperitoneally (ip) with 100 μl of K/BxN serum to induce arthritis. The mice were treated orally twice daily with 42 or 84 mpk of SKI-O-703 from that day for 9 days. In some experiments, mice were injected ip every 2 days with 400 μg/mouse of the TNF blocker, etanercept (Amgen). Ankle thickness was measured, and arthritic index was determined daily, as described previously. On day 9 post-induction, spleens and draining (inguinal and axillary) lymph nodes (LNs) were removed post mortem and assayed by histopathological and immunologic methods.
Hind paws were removed from KSTA mice, fixed, and decalcified in 5.5% EDTA in phosphate-buffered formalin. The paws were embedded in paraffin, sectioned, and stained with hematoxylin and eosin (H&E). Arthritic changes in the ankle and foot were scored (0–4 scale) and expressed as a histopathologic index, as described previously. Safranine O-stained sections were scored (0–4 scale) and expressed as the score for cartilage erosion, as described.
Single-cell suspensions of spleen and LN cells were prepared as previously described. Joint tissues from hind paws of KSTA mice were dissected free of soft tissue and bones, digested with 100 μg/ml Liberase (Roche) for 45 min at 37 °C, and filtered through a 70-μm-pore cell strainer (SPL Life Sciences) to prepare single cell suspensions of synovial infiltrates. The single cell suspensions were stained with an appropriate combination of mAbs and analyzed by FACS. The mAbs used were: CD138-PE, B220-PerCP or -APC-cy7, FAS-PE, CD19-PerCP or -APC, CD21-FITC or -APC, CD43-APC, CD23-PE-cy7, CD8a-PE, CD25-APC-cy7, CXCR5-biotin, GL7-FITC, CD45.2-FITC, CD27-FITC, Ki-67-FITC, Gr-1-FITC, CD4-FITC or -APC-cy7, phospho-Syk-PE, CD11b-PE or -PerCP, PD-1-APC, CD44-APC-cy7, and F4/80-PerCP mAbs (all from BD Biosciences, eBioscience or Biolegend). Streptavidin-PerCP was purchased from BD Biosciences.

Aqueous solubility = assay type: physicochemical; conditions: aqueous solution

Sequence of FGFR1 (P11362 22-822, species assumed): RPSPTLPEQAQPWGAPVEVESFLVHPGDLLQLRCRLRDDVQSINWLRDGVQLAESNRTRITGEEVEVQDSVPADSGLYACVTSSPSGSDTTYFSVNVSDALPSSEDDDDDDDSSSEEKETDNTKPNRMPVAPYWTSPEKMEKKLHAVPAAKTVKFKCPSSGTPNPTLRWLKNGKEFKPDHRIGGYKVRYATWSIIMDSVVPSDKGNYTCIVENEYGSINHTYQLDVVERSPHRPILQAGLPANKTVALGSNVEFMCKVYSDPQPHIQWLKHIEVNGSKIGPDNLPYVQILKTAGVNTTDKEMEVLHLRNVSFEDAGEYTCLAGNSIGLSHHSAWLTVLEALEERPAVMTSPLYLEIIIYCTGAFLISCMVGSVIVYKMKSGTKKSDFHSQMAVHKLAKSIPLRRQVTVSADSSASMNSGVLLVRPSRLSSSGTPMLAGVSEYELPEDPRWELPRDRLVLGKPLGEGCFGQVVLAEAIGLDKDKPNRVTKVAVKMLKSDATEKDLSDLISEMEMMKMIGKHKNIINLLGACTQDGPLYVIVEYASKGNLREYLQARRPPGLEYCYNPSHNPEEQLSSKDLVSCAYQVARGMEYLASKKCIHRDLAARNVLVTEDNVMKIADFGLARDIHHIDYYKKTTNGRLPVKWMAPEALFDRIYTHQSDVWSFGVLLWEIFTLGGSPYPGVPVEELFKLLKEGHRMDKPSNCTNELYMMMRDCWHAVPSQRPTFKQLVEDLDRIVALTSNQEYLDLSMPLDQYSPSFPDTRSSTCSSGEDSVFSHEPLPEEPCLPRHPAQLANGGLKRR

SMILES | Ratio to Syk (FGFR1) (FGFR1; IC50 ratio to Syk) | IC50 (FGFR1; kinase activity, TR-FRET) [µM] | Ratio to Syk (Pyk2) (Pyk2; IC50 ratio to Syk) | IC50 (Pyk2; kinase activity, TR-FRET) [µM] | BCR crosslinking-induced proliferation (mouse primary B cells) | Ankle thickness and arthritic index (BALB/c mice; 42 mpk (lower dose) oral twice daily for 9 days) | Progression of KSTA (ankle thickness, arthritic index, inflammatory cell infiltration) (BALB/c mice; 42 mpk SKI-O-703 combined with TNF blocker etanercept, synergistic) | Ankle thickness and arthritic index (BALB/c mice; 84 mpk oral twice daily for 9 days) | Numbers of whole immune cells (CD45+) infiltrated into synovial tissue (BALB/c mice; 84 mpk, mainly neutrophils and macrophages) | Histopathologic index and cartilage erosion score (BALB/c mice; high dose (84 mpk), day 9) | Joint-draining LN total cells, B cells and GC B cells (BALB/c mice; high dose, day 9, lymphadenopathy disappeared) | Progression of KSTA (BALB/c mice; suboptimal dose 42 mpk, alone) | Solubility (Aqueous solubility)
Cc1nn(-c2ccnc(Nc3ccc4c(c3)c(C(=O)C3CC3)cn4C)n2)cc1CN1C[C@H](O)CO1 [SKI-O-592] | 2753 | 17 | 115 | 0.709 | – | – | – | – | – | – | – | – | –
CS(=O)(=O)O.CS(=O)(=O)O.Cc1nn(-c2ccnc(Nc3ccc4c(c3)c(C(=O)C3CC3)cn4C)n2)cc1CN1C[C@H](O)CO1 [SKI-O-703, (S)-cyclopropyl(5-((4-(4-((4-hydroxyisoxazolidin-2-yl)methyl)-3-methyl-1H-pyrazol-1-yl)pyrimidin-2-yl)amino)-1-methyl-1H-indol-3-yl)methanone dimesylate] | – | – | – | – | inhibited BCR crosslinking-induced proliferation in a concentration-dependent manner | the reduction was less pronounced | significantly suppressed disease progression | dramatically reduced to the basal level | significantly reduced | significantly reduced | significantly reduced numbers | did not significantly inhibit progression of KSTA | soluble in aqueous solution
